One may read the Papp A→B as the apparent permeability from the apical to the basolateral side of a cell layer.

The values below come from article PMC3709818, “A Novel Perspective and Approach to Intestinal Octreotide Absorption: Sinomenine-Mediated Reversible Tight Junction Opening and Its Molecular Mechanism” (International Journal of Molecular Sciences, 2013).

Structures are written as SMILES. Structures can show the parent of a compound that is named as a salt.

A short description of data set [1]: OCT transport across Caco-2 cell monolayers. Format: in vitro ADME, human. Particulars: Caco-2, 21 days, Transwell, 10 μM OCT with or without 0.5% SN, PBS pH 7.4, 120 min, 37 °C, LC-MS/MS, triplicate, mean ± s.d. The procedure:
Caco-2 cells were seeded onto polycarbonate 12-well Transwell® filter inserts as described above. The OCT transport experiment was performed in the apical-to-basolateral directions in PBS adjusted to pH 7.4 [7]. A volume of 0.5 mL of 0.5% SN containing 10 μM OCT was added to the apical side of Caco-2 cell monolayers. The medium in the basolateral side was buffered by the addition of 1.5 mL PBS of each well. Samples of 0.1 mL were withdrawn at time intervals of 30, 60, 90 and 120 min from the basolateral side after the incubation of the solutions on the apical side of cell monolayers. The samples withdrawn were replaced with an equal volume of buffered PBS. Control experiments were performed using a solution of OCT alone. […]
The results were corrected for dilution and plotted as the percentage cumulative OCT transported as a function of time. The apparent permeability coefficients (Papp) were calculated according to the following equation [33]: Papp = ΔQ/(Δt × A × C0) (cm/s), where ΔQ/Δt is the amount of OCT transported within a given time period or permeability rate (ng/min), A is the surface area of the cell monolayer on the insert (cm^2) and C0 is the initial drug concentration (ng/mL). Permeation enhancement ratios (R) were calculated from the Papp values using the following equation R = Papptest/Pappcontrol.

The test system of data set [2] is claudin-1. Briefly: Claudin-1 gene and protein expression (real-time PCR, western blot, immunofluorescence). Format: cell-based, human. Particulars: Caco-2 monolayers. The procedure: Caco-2 cells were grown on 6-well plates for 21 days and were then treated with SN for 2 h. Then, SN was removed by washing the cells with PBS twice. The cells were grown with new culture medium for another 2 h. To observe the effect of PKC on SN, cells in another group were treated with 0.5% SN and 10 μM Ro318220 together for 2 h. Control experiments were performed under the same conditions but without SN. The gene level expressions induced by SN treatment and after its removal were investigated. Total RNA was extracted following a standard guanidinium phenol-chloroform extraction protocol. The quantity of mRNA was determined by measuring the optical density at 260 nm (A260 nm = 1 for 40 μg/mL RNA), and the purity of mRNA was assessed by determining the ratio of the optical density obtained at 260 and 280 nm (pure RNA: A260 nm/A280 nm = 2.0) using a UV-1206 spectrophotometer (Shimadzu, Tokyo, Japan). […] Quantitative real-time PCR was performed using the Applied Biosystems 7500 faster Real-Time PCR System with the SYBR® Premix Ex Taq™ (Tli RNaseH Plus) Master Mix purchased from Takara Bio Inc. (Dalian, China) in triplicate for each sample and each gene. […] The results were expressed as the folds of the CT value for the target mRNA to that of the β-actin mRNA. […]
On the technique in general: In qPCR the cycle at which signal appears reflects the starting amount.

The subject of data set [3] is Caco-2 cell monolayers. Briefly: LDH release cytotoxicity assay. Format: cell-based, human. The procedure: To examine the toxic effects of SN to the Caco-2 cells, a lactate dehydrogenase (LDH) release assay was performed according to Madara and Stafford. The Caco-2 monolayer, which had been cultured in 24-well plates for 21 days, was washed with 500 μL of the PBS and was then incubated with 500 μL of the PBS containing the samples (0.5%, 1%, 2% w/v SN) to be tested at 37 °C for 120 min. Control experiments were performed under the same conditions but without SN. The amounts of LDH in the supernatant were determined using the enzymatic method and following the manufacturer’s instructions of LDH-Cytotoxic test kit from Nanjing KeyGEN Biotech. CO., Ltd. (Nanjing, China). Cytotoxicity was determined after 120 min of SN treatment, and the absorbance at 440 nm (reference wavelength was 650 nm) was measured to determine LDH activity. The cytotoxicity to the Caco-2 cell monolayers was expressed by the ratio of LDH released into the supernatant compared with the control group.
The LDH activity was calculated thus: (U/L) = (ODu − ODc)/(ODs − ODb) × Cs × N × 1000, where ODu, ODc, ODs, ODb represent the absorbance of the test tube, control tube, standard tube, and background tube, respectively, C represents the standard concentration (2 mmol/L) and N represents the dilution ratio of the sample.

The test system of data set [4] is PKC-α. Kind of data set: PKC-α translocation cytosol to membrane (western blot). Format: cell-based, human. Particulars: Caco-2 cells, 0.5% SN, 2 h. As to the method: Caco-2 cells were grown on 6-well plates and were treated with SN as described above. After treatment, cytosolic, membrane and total protein were extracted following the manufacturer’s instructions of the test kit from Nanjing KeyGEN Biotech. CO., LTD (China). The protocols for western blot analyses have been described previously. The protein concentration was calculated using the BCA Protein Assay Kit from Nanjing KeyGEN Biotech. CO., LTD (China). Equal amounts of protein samples (30 μg protein) were separated onto SDS-polyacrylamide gels (PKC and β-actin were 12% gels, claudin-1 was 15% gels), and the separated proteins were transferred to a PVDF membrane. After blocking in 5% skim milk in Tris-buffered saline containing 0.05% Tween-20 (TTBS), the PVDF membrane was incubated overnight in blocking buffer with diluted primary antibodies: anti-claudin-1 (Abcam, Cambridge, MA, USA, 1:1000 dilution), anti-PKC-α (Beyotime Institute of Biotechnology, China, 1:500 dilution), and anti-β-actin (Zhongshan Goldenbridge Biological Technology, Beijing, China, 1:500 dilution), at 4 °C. […] The product bands were photographed, and the density of each product band was quantified. The intensity of each signal was corrected using the values obtained from the immunodetection of β-actin, and the relative protein intensity was expressed as folds of the content in the normal group.
Background: A western blot detects proteins with antibodies after separation by electrophoresis.

The test system of data set [5] is Caco-2 cell monolayers. Kind of data set: FD-4 permeability (paracellular flux). The class given is cell-based, human. The note with it: 0.1% FD-4 apical, 0.5% SN with or without 10 μM Ro318220, up to 120 min, PBS pH 7.4, fluorescence. The procedure:
The integrity of the cell monolayer TJs was also examined by evaluating the FD-4 permeability in PBS adjusted to pH 7.4. A volume of 0.5 mL of 0.1% FD-4 containing 0.5% SN or 0.5% SN + 10 μM Ro318220 was added to the apical side of Caco-2 cell monolayers. The medium in basolateral side was buffered by the addition of 1.5 mL PBS to each well. Samples of 0.1 mL were withdrawn at time intervals of 30, 60, 90 and 120 min from the basolateral side after the incubation of the solutions on the apical side of cell monolayers. The samples withdrawn were replaced with an equal volume of buffered PBS. Control experiments were performed using a solution of 0.1% FD-4 alone. All of the experiments were performed in triplicate at 37 °C in an atmosphere of 90% relative humidity and 5% CO2. Basolateral solutions were then sampled and analyzed.
Quantitative analysis of FD-4: Samples were centrifuged at 10,000 rpm for 10 min, and the supernatant was analyzed using a fluorescence spectrophotometer at an excitation wavelength of 495 nm and an emission wavelength of 520 nm (Hitachi, FP6500, Tokyo, Japan).
Permeation clearance: ΔQ/(Δt × C0), where ΔQ/Δt is the permeation flux, i.e., the transport rate (μg/min), and C0 is the initial concentration on the donor side (μg/mL). Clearance was obtained per unit surface area and expressed as nL/min/cm2.

Data set [6] relates to Caco-2 cell monolayers. Kind of data set: Transepithelial electrical resistance (TEER) measurement. The class given is cell-based, human. As to the method: The cell monolayer integrity was examined by measuring the TEER and evaluating the cell permeability to FD-4 in Caco-2 cell monolayers. The experiments were performed after Caco-2 cells formed polarized monolayers. Cells were seeded onto polycarbonate 12-well Transwell® filter inserts (Corning Costar Corp., Cambridge, MA, USA; pore size 0.4 μm, growth area 1.12 cm^2) at a density of 1 × 10^6 cells/mL, and the cells were grown for 21 days before the TEER study was conducted. After the application of 0.5% SN, TEER was measured at time intervals of 20 min for a period of 120 min. Then, the reversibility of SN on TEER was measured by removing SN from the apical compartment and replacing it with serum-free DMEM for a further 120 min at 20-min intervals. To observe the effect of PKC to SN, cells in another group were treated with 0.5% SN and 10 μM Ro318220 (PKC inhibitor) together for 120 min at 20-min intervals. Control experiments were performed under the same conditions but without SN. All of the experiments were performed in triplicate at 37 °C in an atmosphere of 90% relative humidity and 5% CO2. The TEER measurements across Caco-2 cell monolayers were performed using a Millicell ERS instrument (Millipore, Bedford, MA, USA). The TEER values of these cells after treatment were recorded. Resistance due to the cell monolayers was determined in the presence and the absence of SN after subtracting the contribution of the blank filter. The percent change in TEER was calculated as follows:
(1) TEER=(R1-R0)×A (Ω·cm^2)
where R1 and R0 represent the TEER readings from the wells with cells and the no-cell background wells, respectively, and A (cm^2) represents the surface area of the cell monolayer on the insert.
(2) TEER%=TEERtest/EERinitial×100

For data set [7] the following is noted: everted rat gut sac model; cited from earlier work.

In the case of `C[C@@H](O)[C@@H]1NC(=O)[C@H](CCCCN)NC(=O)[C@@H](Cc2c[nH]c3ccccc23)NC(=O)[C@H](Cc2ccccc2)NC(=O)[C@@H](NC(=O)[C@H](N)Cc2ccccc2)CSSC[C@@H](C(=O)N[C@H](CO)[C@@H](C)O)NC1=O` [OCT, Octreotide], the Papp A→B in data set [1] was 2.67 ± 0.015 ×10⁻⁶ cm/s.

With `COC1=C[C@@H]2[C@@H]3Cc4ccc(OC)c(O)c4[C@]2(CCN3C)CC1=O` [SN, Sinomenine hydrochloride], in data set [2] (0.5% SN 2 h, then 2 h after removal), the “claudin-1 expression after SN removal” value is listed as “returned to its normal level”. Moreover, in data set [2] (0.5% SN with or without 10 μM Ro318220, 2 h), the “claudin-1 gene and protein expression vs control” value is “distinct loss of claudin-1 gene”. The “LDH release vs control” value in data set [3] (0.5% w/v SN, 120 min, PBS 37 °C, Caco-2 monolayers cultured 21 days) is “did not differ from the control”; in data set [3] (2% w/v SN, 60 min, Caco-2 monolayers), “markedly increased LDH activity”. The “cytotoxicity by LDH test” value in data set [3] (1% w/v SN, 120 min, Caco-2 monolayers) is “cytotoxic effects”; in data set [3] (2% w/v SN, 120 min, Caco-2 monolayers), “cytotoxic effects”. Also, in data set [4], the “PKC-α distribution between cytosolic and membrane fraction” value is “most PKC-α was present in the membrane fraction”. For the same compound, in data set [5], the “FD-4 flux (A-B)” value is reported as “time-dependent increase in FD-4 flux”. Also, the “TEER recovery after SN removal vs control” value in data set [6] (0.5% SN 120 min, then removal, at 240 min) was “no difference compared with the control”. Further, the “effect on TEER at 120 min vs control” value in data set [6] (0.5% SN with or without 10 μM Ro318220, 120 min, Caco-2 monolayers, triplicate) is reported as “strong reduction of TEER”. Moreover, the “TEER relative to the initial value” in data set [6] (0.5% SN, 120 min incubation, pH 7.4, Caco-2 monolayers) is recorded as 43%. Further, in data set [6] (0.5% SN, Caco-2 monolayers, recovery after removal), the “time for transient and reversible opening of TJ” value was 2 h.

With `C[C@@]12C[C@@]3(O)O[C@@H](O1)[C@]1(COC(=O)c4ccccc4)[C@H]3C[C@@]12O[C@@H]1O[C@H](CO)[C@@H](O)[C@H](O)[C@H]1O` [paeoniflorin], the “increase of paeoniflorin absorption when co-incubated with SN” value in data set [7] is listed as “approximately 2.5 fold”.
